The assay concerns the target human TLR9 (hTLR9) (Homo sapiens (Human), UniProt Q9NR96). The experiment in a line: TLR9 antagonist assay in HEK-Blue-hTLR9 cells (NF-kB/AP-1 SEAP reporter). The assay is classed as cell-based. To be noted: hTLR9 agonist (such as ODN 2006, 1 uM), SEAP readout at 620 nm, read-out: hTLR9 antagonism IC50. From the text: TLR9 Antagonist Assay HEK-Blue™-hTLR9 cells were obtained from InvivoGen Inc. and used to determine test compound antagonism of human TLR9 (hTLR9) driven responses. HEK-Blue™-hTLR9 cells are designed for studying the stimulation of human TLR9 by monitoring the activation of NF-kB. As described by the manufacturer, “HEK-Blue™-hTLR9 cells were obtained by co-transfection of the hTLR9 gene and an optimized secreted embryonic alkaline phosphatase (SEAP) reporter gene into HEK293 cells. The SEAP reporter gene is placed under the control of the IFN-b minimal promoter fused to five NF-kB and AP-1 binding sites. Stimulation with a TLR9 ligand activates NF-kB and AP-1 which induces the production of SEAP. Levels of SEAP can be easily determined with QUANTI-Blue™ a detection medium that turns purple/blue in the presence of alkaline phosphatase”. TLR9 Antagonism Assay […] Day 2 […] Day 3 […] Calculation of IC50 The concentration dependent inhibition of hTLR9 dependent SEAP production was expressed as the concentration of compound which produced half the maximal level of SEAP induced by the hTLR agonist alone.

Each structure is given as a SMILES string.

human TLR9 (hTLR9), sequence (Q9NR96 26-1032): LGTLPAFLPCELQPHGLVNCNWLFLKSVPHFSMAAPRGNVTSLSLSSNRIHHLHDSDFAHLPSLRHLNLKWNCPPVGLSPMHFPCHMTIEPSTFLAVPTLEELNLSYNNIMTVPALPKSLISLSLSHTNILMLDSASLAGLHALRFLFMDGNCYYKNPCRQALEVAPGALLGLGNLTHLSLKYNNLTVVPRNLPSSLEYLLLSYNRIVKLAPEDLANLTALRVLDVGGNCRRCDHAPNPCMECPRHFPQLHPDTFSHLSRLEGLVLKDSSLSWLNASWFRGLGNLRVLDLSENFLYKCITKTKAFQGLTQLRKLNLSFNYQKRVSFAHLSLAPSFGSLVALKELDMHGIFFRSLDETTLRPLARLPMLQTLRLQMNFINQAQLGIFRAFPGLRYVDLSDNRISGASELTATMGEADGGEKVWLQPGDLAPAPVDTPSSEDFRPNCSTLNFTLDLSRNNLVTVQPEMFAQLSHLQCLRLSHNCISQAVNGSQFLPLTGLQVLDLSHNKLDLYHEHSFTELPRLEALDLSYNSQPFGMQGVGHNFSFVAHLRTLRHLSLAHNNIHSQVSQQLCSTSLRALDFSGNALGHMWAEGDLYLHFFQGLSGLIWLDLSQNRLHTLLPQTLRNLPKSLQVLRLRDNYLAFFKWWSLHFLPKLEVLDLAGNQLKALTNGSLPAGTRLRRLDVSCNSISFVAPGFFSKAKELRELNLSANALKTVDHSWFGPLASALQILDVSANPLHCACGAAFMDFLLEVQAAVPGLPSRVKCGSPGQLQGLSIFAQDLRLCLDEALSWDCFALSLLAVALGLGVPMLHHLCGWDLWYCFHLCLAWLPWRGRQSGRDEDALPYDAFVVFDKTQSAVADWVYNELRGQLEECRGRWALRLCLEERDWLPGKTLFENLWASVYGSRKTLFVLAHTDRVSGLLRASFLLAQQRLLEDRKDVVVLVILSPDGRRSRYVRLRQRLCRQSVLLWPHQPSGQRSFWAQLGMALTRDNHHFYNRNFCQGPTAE

Turning to `c1ccc(-c2nc(NCCN3CCOCC3)c3nc(NCCN4CCOCC4)c(N4CCCC4)nc3n2)cc1` [Example 66], the IC50 was 181 nM.

These data come from patent publication US9359361B2, “Immune system modulators” (JANUS BIOTHERAPEUTICS, INC., priority 2011, dated 2016).
